Columns and labels:
bedstraw = assay: Test B pre/postemergence bedstraw; type: in vivo, Galium aparine
How it was run: (§1)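 Test chemicals in a non-phytotoxic solvent mixture with surfactant were sprayed preemergence onto planted seeds and postemergence onto plants 2 to 18 cm tall (1- to 4-leaf stage). After twelve to sixteen days in a greenhouse, injury was visually rated against untreated controls from 0 (no effect) to 10 (complete control).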

blackgrass = assay: Test B pre/postemergence blackgrass; type: in vivo, Alopecurus myosuroides
How it was run: as §1

surinam grass = assay: Test B pre/postemergence surinam grass; type: in vivo, Brachiaria decumbens
How it was run: as §1

cocklebur = assay: Test B pre/postemergence cocklebur; type: in vivo, Xanthium strumarium
How it was run: as §1

corn = assay: Test B pre/postemergence corn; type: in vivo, Zea mays
How it was run: as §1

crabgrass = assay: Test B pre/postemergence crabgrass; type: in vivo, Digitaria sanguinalis
How it was run: as §1

pigweed = assay: Test B pre/postemergence pigweed; type: in vivo, Amaranthus retroflexus
How it was run: as §1

rape = assay: Test B pre/postemergence rape; type: in vivo, Brassica napus
How it was run: as §1

soybean = assay: Test B pre/postemergence soybean; type: in vivo, Glycine max
How it was run: as §1

sugar beet = assay: Test B pre/postemergence sugar beet; type: in vivo, Beta vulgaris
How it was run: as §1

velvetleaf = assay: Test B pre/postemergence velvetleaf; type: in vivo, Abutilon theophrasti
How it was run: as §1

wheat = assay: Test B pre/postemergence wheat; type: in vivo, Triticum aestivum
How it was run: as §1

wild oat = assay: Test B pre/postemergence wild oat; type: in vivo, Avena fatua
How it was run: as §1

purple nutsedge = assay: Test B pre/postemergence purple nutsedge; type: in vivo, Cyperus rotundus
How it was run: as §1

smallflower flatsedge = assay: Test B flood test smallflower flatsedge; type: in vivo, Cyperus difformis
How it was run: (§2)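 Plants were grown to the 2-leaf stage before treatment with test chemical, then held in a greenhouse for twelve to sixteen days. Injury was visually rated against untreated controls on a 0–10 scale, where 0 is no effect and 10 is complete control.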

bamyardgrass = assay: Test B flood test barnyardgrass; type: in vivo, Echinochloa crus-galli
How it was run: as §2

[1] = Postemergence, Rate 62 g/ha, scale 0 to 10, 0 is no effect, 10 is complete control
[2] = Preemergence, Rate 62 g/ha, scale 0 to 10, 0 is no effect, 10 is complete control
[3] = Preemergence, Rate 125 g/ha, scale 0 to 10 (0 no effect, 10 complete control)
[4] = Preemergence, Rate 250 g/ha, scale of 0 to 10 where 0 is no effect and 10 is complete control
[5] = Preemergence, Rate 500 g/ha, scale 0 (no effect) to 10 (complete control)
[6] = Postemergence, Rate 250 g/ha, scale 0 to 10, 0 no effect, 10 complete control
[7] = Rate 125 g/ha, Postemergence, scale 0 to 10, 0 no effect, 10 complete control
[8] = Rate 500 g/ha, Postemergence, 0 to 10 scale (0 no effect, 10 complete control)
[9] = Rate 125 g/ha, Postemergence section (flood test species), scale 0 to 10, 0 no effect, 10 complete control
[10] = flood test, listed under Postemergence, Rate 250 g/ha, scale 0 to 10, 0 no effect, 10 complete control

Cc1ccccc1-n1c(=O)on(C(=O)N(c2ccc(Cl)cc2)C(C)C)c1=O [Compound 41]
3: Blackgrass plant response rating (blackgrass; [6]) | Cocklebur plant response rating (cocklebur; [8]) | Plant response rating, Crabgrass (crabgrass; [2]) | Redroot pigweed plant response rating (pigweed; [6]) | Soybean plant response rating (soybean; [1]) | Soybean plant response rating (soybean; [7])
2: Plant response rating, Blackgrass (blackgrass; [4])
1: Cocklebur plant response rating (cocklebur; [6]) | Crabgrass plant response rating (crabgrass; [7]) | Plant response rating, Redroot pigweed (pigweed; [3]) | Plant response rating, Redroot pigweed (pigweed; [4])
7: B. signalgrass plant response rating (surinam grass; [5]) | Crabgrass plant response rating (crabgrass; [8]) | Redroot pigweed plant response rating (pigweed; [5])
5: Crabgrass plant response rating (crabgrass; [6]) | Redroot pigweed plant response rating (pigweed; [8])
8: Plant response rating, Crabgrass (crabgrass; [4])
4: Blackgrass plant response rating (blackgrass; [5]) | Blackgrass plant response rating (blackgrass; [8]) | Plant response rating, B. signalgrass (surinam grass; [4]) | Plant response rating, Crabgrass (crabgrass; [3]) | Soybean plant response rating (soybean; [6]) | Wild oats plant response rating (wild oat; [5])
10: Crabgrass plant response rating (crabgrass; [5])
0: Bedstraw plant response rating (bedstraw; [1]) | Plant response rating, Bedstraw (bedstraw; [2]) | Plant response rating, Bedstraw (bedstraw; [3]) | Plant response rating, Bedstraw (bedstraw; [4]) | Bedstraw plant response rating (bedstraw; [5]) | Blackgrass plant response rating (blackgrass; [1]) | Plant response rating, Blackgrass (blackgrass; [2]) | Plant response rating, Blackgrass (blackgrass; [3]) | Blackgrass plant response rating (blackgrass; [7]) | B. signalgrass plant response rating (surinam grass; [1]) | B. signalgrass plant response rating (surinam grass; [6]) | Plant response rating, B. signalgrass (surinam grass; [2]) | Plant response rating, B. signalgrass (surinam grass; [3]) | B. signalgrass plant response rating (surinam grass; [7]) | B. signalgrass plant response rating (surinam grass; [8]) | Cocklebur plant response rating (cocklebur; [1]) | Plant response rating, Cocklebur (cocklebur; [2]) | Plant response rating, Cocklebur (cocklebur; [3]) | Plant response rating, Cocklebur (cocklebur; [4]) | Cocklebur plant response rating (cocklebur; [5]) | Cocklebur plant response rating (cocklebur; [7]) | Corn plant response rating (corn; [1]) | Corn plant response rating (corn; [6]) | Plant response rating, Corn (corn; [2]) | Plant response rating, Corn (corn; [3]) | Plant response rating, Corn (corn; [4]) | Corn plant response rating (corn; [5]) | Corn plant response rating (corn; [7]) | Corn plant response rating (corn; [8]) | Crabgrass plant response rating (crabgrass; [1]) | Redroot pigweed plant response rating (pigweed; [1]) | Plant response rating, Redroot pigweed (pigweed; [2]) | Redroot pigweed plant response rating (pigweed; [7]) | Rape plant response rating (rape; [1]) | Rape plant response rating (rape; [6]) | Plant response rating, Rape (rape; [2]) | Plant response rating, Rape (rape; [3]) | Plant response rating, Rape (rape; [4]) | Rape plant response rating (rape; [5]) | Rape plant response rating (rape; [7]) | Rape plant response rating (rape; [8]) | Plant response rating, Soybean (soybean; [2]) | Plant response rating, Soybean (soybean; [3]) | Plant response rating, Soybean (soybean; [4]) | Soybean plant response rating (soybean; [5]) | Sugarbeets plant response rating (sugar beet; [1]) | Sugarbeets plant response rating (sugar beet; [6]) | Plant response rating, Sugarbeets (sugar beet; [2]) | Plant response rating, Sugarbeets (sugar beet; [3]) | Plant response rating, Sugarbeets (sugar beet; [4]) | Sugarbeets plant response rating (sugar beet; [5]) | Sugarbeets plant response rating (sugar beet; [7]) | Velvetleaf plant response rating (velvetleaf; [1]) | Velvetleaf plant response rating (velvetleaf; [6]) | Plant response rating, Velvetleaf (velvetleaf; [2]) | Plant response rating, Velvetleaf (velvetleaf; [3]) | Plant response rating, Velvetleaf (velvetleaf; [4]) | Velvetleaf plant response rating (velvetleaf; [5]) | Velvetleaf plant response rating (velvetleaf; [7]) | Wheat plant response rating (wheat; [1]) | Wheat plant response rating (wheat; [6]) | Plant response rating, Wheat (wheat; [2]) | Plant response rating, Wheat (wheat; [3]) | Plant response rating, Wheat (wheat; [4]) | Wheat plant response rating (wheat; [5]) | Wheat plant response rating (wheat; [7]) | Wild oats plant response rating (wild oat; [1]) | Wild oats plant response rating (wild oat; [6]) | Plant response rating, Wild oats (wild oat; [3]) | Plant response rating, Wild oats (wild oat; [4]) | Wild oats plant response rating (wild oat; [7]) | Nutsedge plant response rating (purple nutsedge; [1]) | Nutsedge plant response rating (purple nutsedge; [6]) | Plant response rating, Nutsedge (purple nutsedge; [2]) | Plant response rating, Nutsedge (purple nutsedge; [3]) | Plant response rating, Nutsedge (purple nutsedge; [4]) | Nutsedge plant response rating (purple nutsedge; [5]) | Nutsedge plant response rating (purple nutsedge; [7]) | Nutsedge plant response rating (purple nutsedge; [8]) | S. Flatsedge plant response rating (smallflower flatsedge; [1]) | S. Flatsedge plant response rating (smallflower flatsedge; [9]) | S. Flatsedge plant response rating (smallflower flatsedge; [10]) | Barnyardgrass plant response rating (bamyardgrass; [1]) | Barnyardgrass plant response rating (bamyardgrass; [9]) | Barnyardgrass plant response rating (bamyardgrass; Rate 500 g/ha, Postemergence section of Table B, 0 to 10 scale (0 no effect, 10 complete control)) | Barnyardgrass plant response rating (bamyardgrass; [10])

Source: US6737383B1, “Herbicidal oxadiazolidines” (priority 1999, dated 2004)
